Reference: ChEMBL document CHEMBL1201862, “PubChem BioAssay data set” (2004)
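In this assay, cells in 96-well plates receive the compound at five concentrations for 48 hours. Endpoints are linearly interpolated between the surrounding concentrations. Here, GI50 denotes the concentration required for 50% inhibition of growth.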 Activity calls are given as the source filed them. Cut-off read from the data, not from the text of the source: active = GI50 up to about 1.1 µM and inactive = higher.

Assays:
Assay in all cases: growth of human tumour cells (NCI), 48 h
M14 = system: M14
TK-10 = system: TK-10
SK-OV-3 = system: SK-OV-3
NCI-H522 = system: NCI-H522
IGROV-1 = system: IGROV-1
SNB-75 = system: SNB-75
LOX IMVI = system: LOX IMVI
A549 = system: A549
HOP-62 = system: HOP-62
U-251 = system: U-251
OVCAR-5 = system: OVCAR-5
UACC-62 = system: UACC-62
RXF 393 = system: RXF 393
A498 = system: A498

Measured: GI50

C1OC1C1CO1 (configuration not stated)
inactive: M14 > 100 µM | TK-10 > 100 µM | SK-OV-3 57.8 µM | NCI-H522 33.6 µM | IGROV-1 > 100 µM | SNB-75 14.6 µM | LOX IMVI 21.1 µM | A549 30.1 µM | HOP-62 17.3 µM | U-251 20.1 µM | OVCAR-5 > 100 µM | UACC-62 13.6 µM | RXF 393 48.4 µM

O=C(N/C(=C\c1ccc(/C=C(\NC(=O)c2ccccc2)c2nc3ccccc3s2)cc1)c1nc2ccccc2s1)c1ccccc1
inactive: M14 3.42 µM | TK-10 12.7 µM | NCI-H522 2.13 µM | IGROV-1 3.85 µM | SNB-75 5.48 µM | LOX IMVI 4.21 µM | A549 13.5 µM | HOP-62 18.4 µM | U-251 2.59 µM | A498 17.1 µM | OVCAR-5 17.2 µM | UACC-62 2.37 µM | RXF 393 17.7 µM

Cc1nc2c(nc1C)C(=O)c1cc(O)ccc1C2=O
inactive: M14 > 77.6 µM | TK-10 > 100 µM | SK-OV-3 > 100 µM | NCI-H522 57.4 µM | IGROV-1 68.9 µM | SNB-75 > 100 µM | LOX IMVI 53.1 µM | A549 77.6 µM | HOP-62 69.5 µM | U-251 > 100 µM | A498 > 69.8 µM | OVCAR-5 > 100 µM | UACC-62 22.3 µM | RXF 393 > 100 µM

Cc1c(C#N)c(=O)[nH]c(=O)n1CCN1CCN(C(=O)NCCCCCCNC(=O)N2CCN(CCn3c(C)c(C#N)c(=O)[nH]c3=O)CC2)CC1
inactive: M14 > 100 µM | TK-10 > 100 µM | SK-OV-3 > 100 µM | IGROV-1 > 100 µM | SNB-75 > 100 µM | LOX IMVI > 100 µM | A549 > 100 µM | HOP-62 > 100 µM | U-251 > 100 µM | A498 > 100 µM | UACC-62 > 100 µM | RXF 393 > 100 µM

Cc1cc(C)c(S(=O)(=O)ONC(=O)OC(C)(C)C)c(C)c1
inactive: M14 > 100 µM | TK-10 > 100 µM | SK-OV-3 > 100 µM | NCI-H522 > 100 µM | IGROV-1 > 100 µM | SNB-75 > 100 µM | LOX IMVI > 100 µM | A549 > 100 µM | HOP-62 > 100 µM | U-251 > 100 µM | A498 > 100 µM | OVCAR-5 > 100 µM | UACC-62 > 100 µM | RXF 393 > 100 µM

CCC(=O)N(O)C(C)(C)C
inactive: M14 > 100 µM | TK-10 > 100 µM | SK-OV-3 > 100 µM | NCI-H522 > 100 µM | IGROV-1 > 100 µM | SNB-75 92.3 µM | LOX IMVI > 100 µM | A549 > 100 µM | HOP-62 > 100 µM | U-251 > 100 µM | OVCAR-5 > 100 µM | UACC-62 > 100 µM | RXF 393 > 100 µM

O=[N+]([O-])c1ccc2nc(/C(=N/Nc3ccccc3)C(O)c3ccco3)c(O)nc2c1 (configuration not stated)
inactive: M14 > 100 µM | NCI-H522 9.55 µM | IGROV-1 > 100 µM | SNB-75 > 100 µM | LOX IMVI 72.4 µM | A549 > 100 µM | HOP-62 37.6 µM | U-251 > 100 µM | A498 > 100 µM | UACC-62 45.7 µM | RXF 393 29.5 µM

COc1cccc2c1CCc1ccccc1CC2=O
inactive: M14 > 100 µM | TK-10 > 100 µM | SK-OV-3 > 100 µM | NCI-H522 > 100 µM | IGROV-1 > 100 µM | SNB-75 > 100 µM | LOX IMVI > 100 µM | A549 > 100 µM | U-251 > 100 µM | A498 > 100 µM | OVCAR-5 > 100 µM | UACC-62 > 100 µM | RXF 393 > 100 µM

Nn1c(-c2ccccc2)nc2ccc(Br)cc2c1=O
inactive: M14 54.1 µM | TK-10 > 100 µM | SK-OV-3 61.5 µM | NCI-H522 33.7 µM | IGROV-1 44.8 µM | SNB-75 > 100 µM | A549 > 100 µM | HOP-62 > 10 µM | U-251 41.4 µM | A498 70.5 µM | OVCAR-5 > 100 µM | UACC-62 45.9 µM

NC(=O)C(=O)C1CCC2=C(Sc3ccccc3N2)C1=O (configuration not stated)
inactive: M14 > 100 µM | TK-10 > 100 µM | SK-OV-3 > 100 µM | NCI-H522 37.5 µM | IGROV-1 > 100 µM | SNB-75 > 100 µM | LOX IMVI > 100 µM | A549 > 100 µM | HOP-62 > 100 µM | U-251 > 100 µM | A498 > 100 µM | OVCAR-5 > 100 µM | UACC-62 > 100 µM | RXF 393 > 100 µM

COC(=O)C1(C(=O)OC)CC(=O)c2cc3c(cc2-c2c(cc(OC)c(OC)c2OC)C1)OCO3
inactive: TK-10 > 211 µM | SK-OV-3 > 211 µM | NCI-H522 96.4 µM | IGROV-1 > 211 µM | LOX IMVI > 211 µM | A549 > 211 µM | HOP-62 > 211 µM | U-251 > 211 µM | OVCAR-5 88.3 µM | UACC-62 109 µM | RXF 393 54.7 µM

CN(C)c1nc(N(C)C)n2nc(-c3ccccc3[N+](=O)[O-])nc2n1
inactive: M14 > 100 µM | TK-10 > 100 µM | SK-OV-3 > 100 µM | NCI-H522 > 100 µM | IGROV-1 > 100 µM | SNB-75 > 100 µM | LOX IMVI > 100 µM | A549 > 100 µM | HOP-62 > 100 µM | U-251 > 100 µM | A498 > 100 µM | OVCAR-5 > 100 µM | UACC-62 > 100 µM | RXF 393 > 100 µM

C[Si](C)(C)/C=C/CCC(C=O)(CCCl)c1ccccc1 (configuration not stated)
inactive: M14 28.3 µM | TK-10 56.1 µM | SK-OV-3 56.9 µM | NCI-H522 13.9 µM | IGROV-1 41.1 µM | SNB-75 35.2 µM | LOX IMVI 19.1 µM | A549 23.4 µM | U-251 15.7 µM | A498 64.1 µM | OVCAR-5 25.5 µM | UACC-62 21.7 µM | RXF 393 22.4 µM

Clc1ccc2c(Cl)ncnc2c1
inactive: M14 > 100 µM | TK-10 > 100 µM | SK-OV-3 > 100 µM | NCI-H522 > 100 µM | IGROV-1 > 100 µM | SNB-75 42.8 µM | LOX IMVI > 100 µM | A549 > 100 µM | HOP-62 > 100 µM | U-251 > 100 µM | A498 > 100 µM | OVCAR-5 > 100 µM | UACC-62 > 100 µM

O=C1C(Cl)C(c2cccc(O)c2)N1n1cnc2ccccc2c1=O (configuration not stated)
inactive: M14 > 100 µM | TK-10 > 100 µM | SK-OV-3 > 100 µM | NCI-H522 > 100 µM | IGROV-1 60.5 µM | SNB-75 27.9 µM | LOX IMVI > 100 µM | A549 > 100 µM | HOP-62 > 100 µM | U-251 > 100 µM | OVCAR-5 > 100 µM | UACC-62 > 100 µM | RXF 393 > 100 µM

Cc1cccc(-c2nnc3s/c(=C\c4ccc(N(C)C)cc4)c(=O)n23)c1
inactive: M14 > 100 µM | TK-10 > 100 µM | SK-OV-3 > 100 µM | NCI-H522 > 100 µM | IGROV-1 > 100 µM | SNB-75 > 100 µM | LOX IMVI > 100 µM | A549 > 100 µM | HOP-62 > 100 µM | U-251 > 100 µM | A498 > 100 µM | OVCAR-5 > 100 µM | UACC-62 > 100 µM | RXF 393 > 100 µM

COc1ccccc1NC(=O)C1=C(C)NC(C)=C(C(=O)Nc2ccccc2OC)C1c1ccc(C)cc1
inactive: M14 64.6 µM | TK-10 69.5 µM | SK-OV-3 > 100 µM | NCI-H522 60.7 µM | IGROV-1 58.7 µM | SNB-75 58.5 µM | LOX IMVI > 100 µM | HOP-62 > 100 µM | U-251 > 100 µM | A498 23.3 µM | OVCAR-5 70.3 µM | UACC-62 65.3 µM | RXF 393 35 µM

CCCC(O)c1ccc2[nH]c3c(C)cc([N+](=O)[O-])c(C)c3c2c1 (configuration not stated)
inactive: M14 > 100 µM | TK-10 23 µM | NCI-H522 > 100 µM | SNB-75 > 100 µM | LOX IMVI > 100 µM | A549 39.3 µM | HOP-62 > 100 µM | OVCAR-5 > 100 µM

O=C(Oc1ccc2c(-c3ccccc3)c(C(=O)Nc3ccc(Cl)cc3)c(=O)oc2c1)c1ccccc1
inactive: M14 > 100 µM | TK-10 > 100 µM | SK-OV-3 > 100 µM | NCI-H522 > 100 µM | IGROV-1 > 100 µM | SNB-75 52.2 µM | LOX IMVI > 100 µM | A549 > 100 µM | HOP-62 > 100 µM | U-251 > 100 µM | UACC-62 > 100 µM | RXF 393 > 100 µM

COC1=CC(=O)[C@]2(C)[C@H](C1=O)C(C)[C@H]2c1ccc(OC)cc1 (some centres not stated)
inactive: M14 > 100 µM | TK-10 > 100 µM | SK-OV-3 > 100 µM | NCI-H522 > 100 µM | IGROV-1 > 100 µM | SNB-75 > 100 µM | LOX IMVI > 100 µM | A549 > 100 µM | HOP-62 > 100 µM | U-251 > 100 µM | A498 > 100 µM | OVCAR-5 > 100 µM | UACC-62 > 100 µM | RXF 393 > 100 µM

COC(=O)C1=C(C(=O)OC)C(C(=O)OC)C(C(=O)OC)=C1C(=O)OC
inactive: M14 > 100 µM | TK-10 > 100 µM | SK-OV-3 > 100 µM | NCI-H522 > 100 µM | IGROV-1 > 100 µM | SNB-75 > 100 µM | LOX IMVI > 100 µM | A549 > 100 µM | HOP-62 > 100 µM | U-251 > 100 µM | OVCAR-5 > 100 µM | UACC-62 > 100 µM | RXF 393 > 100 µM
